Measurements taken from PubChem BioAssay (NCI).
Where “and” joins values, the source holds several entries; their conditions need not be identical. Equal values may be shown once.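 Tested at 5 concentrations; 48 h exposure; 96-well plates; endpoints linearly interpolated, else capped at highest concentration. The concentration for 50% growth inhibition is given as GI50. TGI: total growth inhibition.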

Experiments:
Assay in all cases: NCI-60 cell line screen, 48 h
OVCAR-5 ovarian = test system: OVCAR-5 ovarian
HCT-15 colon = test system: HCT-15 colon
786-0 renal = test system: 786-0 renal
HL-60(TB) leukemia = test system: HL-60(TB) leukemia
SW-620 colon = test system: SW-620 colon
OVCAR-3 ovarian = test system: OVCAR-3 ovarian
NCI-H23 lung = test system: NCI-H23 lung
TK-10 renal = test system: TK-10 renal
DU-145 prostate = test system: DU-145 prostate

Row | SMILES | TGI (OVCAR-5 ovarian) | TGI (HCT-15 colon) | TGI (786-0 renal) | TGI (HL-60(TB) leukemia) | TGI (SW-620 colon) | TGI (OVCAR-3 ovarian) | TGI (NCI-H23 lung) | TGI (TK-10 renal) | GI50 (786-0 renal) | GI50 (SW-620 colon) | GI50 (OVCAR-5 ovarian) | GI50 (DU-145 prostate) | TGI (DU-145 prostate) | GI50 (HCT-15 colon) | GI50 (TK-10 renal) | GI50 (HL-60(TB) leukemia) | GI50 (OVCAR-3 ovarian) | GI50 (NCI-H23 lung)
1 | O=C(Nc1nc2ccc([N+](=O)[O-])cc2s1)C(=O)C(C(=O)c1ccncc1)C1OC(=O)c2ccccc21 (stereo not given) | > 100 µM | > 100 µM | > 100 µM | > 100 µM | > 100 µM | > 100 µM | > 100 µM | – | – | – | – | – | – | – | – | – | – | –
2 | COc1nc2c(nc(N)n2C2OCC(O)C(O)C2O)c(=O)n1C (stereo not given) | – | – | > 100 µM | > 100 µM | > 100 µM | > 100 µM | > 100 µM | > 100 µM | – | – | – | – | – | – | – | – | – | –
3 | O=c1cccccc1[O-].O=c1cccccc1[O-].O=c1cccccc1[O-].[Ce+3] | > 100 µM | > 100 µM | 55.2 µM | 89 µM | > 100 µM | 35.5 µM | 86.1 µM | 65.2 µM | – | – | – | – | – | – | – | – | – | –
4 | CC1(C(=O)O)CCOc2ccccc21 (stereo not given) | > 100 µM | > 100 µM | > 100 µM | > 100 µM | > 100 µM | > 100 µM | > 100 µM | > 100 µM | – | – | – | – | – | – | – | – | – | –
5 | CC(=O)[O-].[Zn].c1ccc(/C(=N\Nc2ccccn2)c2ccccn2)cc1 | – | 11.6 µM | 2.16 µM | 0.0048 µM and 0.0138 µM | 1.63 µM | – | 19.3 µM | 3.34 µM | 0.366 µM | 0.0319 µM | – | – | – | – | – | – | – | –
6 | C=C1CCCC2[C@](C)(CC3=C(O)C(=O)C=C(OC)C3=O)[C@@H](C)CC[C@]12C (stereo not given in full) | – | 49.6 µM | 18.3 µM | 9.59 µM | 53.3 µM | 31.3 µM | 12.5 µM | > 100 µM | – | – | – | – | – | – | – | – | – | –
7 | S=c1sc2cscc2s1 | > 100 µM | > 100 µM | 46.5 µM | 81.5 µM | 41.1 µM | 54.9 µM | 97.7 µM | 40.2 µM | – | – | – | – | – | – | – | – | – | –
8 | OCC(O)C(O)C(O)c1nn(-c2ccccc2)c2nc3cc(Cl)c(Cl)cc3nc12 (stereo not given) | 83.6 µM | – | > 100 µM | 91.2 µM | > 100 µM | > 100 µM | > 100 µM | > 100 µM | – | – | – | – | – | – | – | – | – | –
9 | COc1ccc(-c2ccc(-c3ccc(C(=N)N)cn3)o2)cc1Cl | 3.38 µM | 3.38 µM | 3.4 µM | 5.36 µM | 3.57 µM | 4.79 µM | 4.04 µM | 9.47 µM | 1.86 µM | 1.78 µM | 1.74 µM | 3.45 µM | 11.3 µM | 1.73 µM | 3.19 µM | 2.29 µM | 2.24 µM | 1.92 µM
10 | Cc1ccc(C2=C(c3ccc(C)cc3)C(c3ccc(C)cc3)=C(c3ccc(C)cc3)C2=O)cc1 | > 100 µM | > 100 µM | > 100 µM | – | > 100 µM | – | > 100 µM | > 100 µM | – | – | – | – | – | – | – | – | – | –
11 | O=C(Nc1ccc(Br)cc1)C(=O)C(C(=O)c1ccccc1F)C1OC(=O)c2ccccc21 (stereo not given) | > 100 µM | > 100 µM | 56.8 µM | 75.6 µM | > 100 µM | > 100 µM | 43.6 µM | > 100 µM | – | – | – | – | – | – | – | – | – | –
12 | CC(C)CC12CC3CCC(CNC1=O)C32C (stereo not given) | > 100 µM | – | > 100 µM | > 100 µM | > 100 µM | > 100 µM | > 100 µM | > 100 µM | – | – | – | – | – | – | – | – | – | –
13 | COc1ccc2c(c1)c(-c1ccc(-c3cn(C)c4ccc(OC)cc34)[nH]1)cn2C | 11 µM | 3.91 µM | 36.1 µM | 5.69 µM | 5.86 µM | – | 33 µM | 10.7 µM | 12.2 µM | 2.26 µM | 3.11 µM | 10.6 µM | 31.1 µM | 1.84 µM | 3.56 µM | 2.36 µM | – | 4.84 µM
14 | CC1CCCc2c1c1ccc3c(O)cccc3c1oc2=O (stereo not given) | > 100 µM | > 100 µM | 64.7 µM | > 100 µM | > 100 µM | > 100 µM | > 100 µM | 71.3 µM | – | – | – | – | – | – | – | – | – | –
15 | CCN(CC)c1ccc(N=C2C=C(Cl)C(=O)c3ncccc32)c(C)c1 | – | 20.8 µM | 12.2 µM | 4.72 µM | 17.3 µM | 5.04 µM | 11.3 µM | 29.2 µM | – | – | – | – | – | – | – | – | – | –
16 | CC(C)C(=O)[O-].CC(C)C(=O)[O-].N.N.N.N.[Co+3].[O-][Cl+3]([O-])([O-])[O-] | > 100 µM | > 100 µM | > 100 µM | > 100 µM | > 100 µM | > 100 µM | > 100 µM | > 100 µM | > 100 µM | > 100 µM | > 100 µM | – | – | > 100 µM | > 100 µM | > 100 µM | > 100 µM | > 100 µM
